The results in this text go back to ChEMBL document CHEMBL4219265, “Piperlongumine derivative, CG-06, inhibits STAT3 activity by direct binding to STAT3 and regulating the reactive oxygen species in DU145 prostate carcinoma cells” (Bioorg Med Chem Lett, 2018).

The test system of data set [1] is DU-145. The data set can be described thus: Growth inhibition of human DU145 cells after 48 hrs by WST-1 assay. Format: functional. Particulars: DU-145, 48 h.
Data set [2] has as its target T1, Signal transducer and activator of transcription 3 (Homo sapiens, UniProt P40763). The data set can be described thus: Inhibition of STAT3 phosphorylation at Tyr705 residues in human DU145 cells assessed as ratio of phosphorylated STAT3 protein level to GAPDH protein level at 0.1 uM after 24 hrs by Western blot analysis (reference value: 1). Format: cell-based. (In general: In western blotting, separated proteins are transferred to a membrane and probed.)

For data set [3], the target named is T1, Signal transducer and activator of transcription 3. The data set can be described thus: Inhibition of STAT3 phosphorylation at Tyr705 residues in human DU145 cells assessed as ratio of phosphorylated STAT3 protein level to GAPDH protein level at 0.5 uM after 24 hrs by Western blot analysis (reference value: 1). Format: cell-based.
For data set [4] the target is unchanged. Kind of data set: Inhibition of STAT3 phosphorylation at Tyr705 residues in human DU145 cells assessed as ratio of phosphorylated STAT3 protein level to GAPDH protein level at 1 uM after 24 hrs by Western blot analysis (reference value: 1). Format: cell-based.
Data set [5] concerns DU-145. Kind of data set: Effect on total STAT3 protein level in human DU145 cells assessed as ratio of STAT3 protein level to GAPDH protein level at 5 uM after 0.5 hrs by Western blot analysis (reference value: 1). It is filed as ADME, cell-based. Conditions: du-145, 0.5 h.
In data set [6] the test system is DU-145. Kind of data set: Effect on total STAT3 protein level in human DU145 cells assessed as ratio of STAT3 protein level to GAPDH protein level at 5 uM after 1 hr by Western blot analysis (reference value: 1). Conditions: du-145, 1 h. It is filed as ADME, cell-based.
The test system of data set [7] is DU-145. The data set can be described thus: Effect on total STAT3 protein level in human DU145 cells assessed as ratio of STAT3 protein level to GAPDH protein level at 5 uM after 12 hrs by Western blot analysis (reference value: 1). Format: ADME, cell-based. Particulars: du-145, 12 h.
In data set [8] the target is T1, Signal transducer and activator of transcription 3. The data set can be described thus: Inhibition of STAT3 in human DU145 cells assessed as ratio of Bcl-2 protein level to tubulin protein level at 5 uM after 48 hrs by Western blot analysis (reference value: 1). Format: cell-based.
Data set [9] shares this target. The data set can be described thus: Inhibition of STAT3 in human DU145 cells assessed as ratio of PARP protein level to tubulin protein level at 5 uM after 48 hrs by Western blot analysis (reference value: 1). It is filed as cell-based.
The target is the same in data set [10]. The data set can be described thus: Inhibition of IL-6-mediated STAT3 phosphorylation in human LNCAP cells assessed as ratio of phosphorylated STAT3 protein level to GAPDH protein level at 5 uM preincubated for 12 hrs followed by IL-6 stimulation for 30 mins by Western blot analysis (reference value: 7.5). Format: cell-based.
Data set [11] deals with DU-145. The data set can be described thus: Induction of apoptosis in human DU145 cells at 5 uM after 24 hrs by flow cytometry (reference value: 0.61%). It is filed as functional.
The test system of data set [12] is DU-145. Kind of data set: Cell cycle arrest in human DU145 cells assessed as accumulation at G0/G1 phase at 5 uM after 24 hrs by flow cytometry (reference value: 24.07%). It is filed as functional. A general note: In flow cytometry, cells or beads pass a laser one at a time.
Data set [13] concerns DU-145. The data set can be described thus: Cell cycle arrest in human DU145 cells assessed as accumulation at S phase at 5 uM after 24 hrs by flow cytometry (reference value: 6.6%). Format: functional.
Data set [14] deals with T1, Signal transducer and activator of transcription 3. Kind of data set: Binding affinity to STAT3 in human DU145 cell lysates assessed as reduction in pronase-induced STAT3 digestion by measuring ratio of STAT3 protein level to GAPDH protein level at 100 uM incubated for 1 hr in absence of pronase by Western blot analysis (reference value: 1).
Data set [15] shares this target. Kind of data set: Binding affinity to STAT3 in human DU145 cell lysates assessed as reduction in pronase-induced STAT3 digestion by measuring ratio of STAT3 protein level to GAPDH protein level incubated for 1 hr followed by 0.05% pronase addition for 10 mins by Western blot analysis.
The test system of data set [16] is DU-145. Kind of data set: Induction of intracellular ROS generation in human DU145 cells at 5 uM by DCFH-DA probe based flow cytometry. Format: functional, cell-based. Conditions: TDE = time-dependent effect.
The test system of data set [17] is DU-145. The data set can be described thus: Effect on total ERK1/2 protein level in human DU145 cells assessed as ratio of ERK1/2 protein level to GAPDH protein level at 5 uM after 0.5 hrs by Western blot analysis (reference value: 1). Format: ADME, cell-based. Particulars: du-145, 0.5 h.
Data set [18] deals with DU-145. Kind of data set: Effect on total ERK1/2 protein level in human DU145 cells assessed as ratio of ERK1/2 protein level to GAPDH protein level at 5 uM after 6 hrs by Western blot analysis (reference value: 1). Particulars: du-145, 6 h. Format: ADME, cell-based.
The target in data set [19] is T1, Signal transducer and activator of transcription 3. Kind of data set: Inhibition of STAT3 phosphorylation in human DU145 cells assessed as ratio of phosphorylated STAT3 protein level to GAPDH protein level at 5 uM preincubated with NAC for 1 hr followed by compound addition for 1 hr by Western blot analysis (reference value: 0.3). Format: cell-based.

T1 sequence (P40763 whole entry): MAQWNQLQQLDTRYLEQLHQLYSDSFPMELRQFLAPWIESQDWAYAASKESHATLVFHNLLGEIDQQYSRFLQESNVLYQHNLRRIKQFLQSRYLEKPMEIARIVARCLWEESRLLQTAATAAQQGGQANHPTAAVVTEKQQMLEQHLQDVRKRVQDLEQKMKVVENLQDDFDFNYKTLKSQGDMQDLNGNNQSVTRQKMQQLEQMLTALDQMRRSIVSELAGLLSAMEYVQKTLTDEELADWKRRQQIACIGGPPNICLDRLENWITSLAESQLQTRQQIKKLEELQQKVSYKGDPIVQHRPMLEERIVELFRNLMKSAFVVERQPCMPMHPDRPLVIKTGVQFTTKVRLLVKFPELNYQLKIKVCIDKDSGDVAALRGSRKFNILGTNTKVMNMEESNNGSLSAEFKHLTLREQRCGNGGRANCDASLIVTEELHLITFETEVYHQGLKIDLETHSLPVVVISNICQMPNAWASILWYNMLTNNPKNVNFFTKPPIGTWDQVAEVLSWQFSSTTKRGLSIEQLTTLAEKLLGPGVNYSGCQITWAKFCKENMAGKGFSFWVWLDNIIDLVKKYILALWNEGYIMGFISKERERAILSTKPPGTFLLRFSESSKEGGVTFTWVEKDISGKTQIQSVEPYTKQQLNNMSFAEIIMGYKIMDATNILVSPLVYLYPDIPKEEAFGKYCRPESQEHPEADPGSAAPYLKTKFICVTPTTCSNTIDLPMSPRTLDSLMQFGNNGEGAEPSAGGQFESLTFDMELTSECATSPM

On to `C=C(C)C(=O)N(Cc1ccc(Br)cc1)C(=O)/C=C/c1cc(OC)c(OC)c(OC)c1`, for which it took 900 nM to inhibit growth in data set [1] by half (GI50). For the same compound, the Ratio is 0.9 in [2]; 0.7 in [3]; 0.6 in data set [4]; 1 in data set [5]; 1 in [6]; 0.9 in data set [7]. Moreover, the Ratio in data set [8] was 0.7; in [9], 0.3 to 0.6; in data set [10], 1.6; in data set [14], 1.2; in [17], 1.1; in data set [18] it was 1. Moreover, the Ratio in [19] is 1.2. The Activity in data set [11] was 0.72%; in [12] it was 34.79%; in data set [13], 8.27%; in [15] it was “Dose-dependent effect”; in data set [16] it was “Tde”.
